Values joined by “and” are separate entries in the source; they are usually repeats but may differ in a detail not shown here. Identical values can stand only once.
What was measured:
[1] = Static bioassay, lethal concentration to cutthroat trout; type: in vivo, S. clarki; settings: cutthroat trout, water
Protocol: (§1) Bioassays utilized water from an artesian well at Moscow, Idaho and from the headwaters of the Palouse River, also in Idaho. The chemical characteristics of the artesian water were analyzed as follows: Total hardness 67-120 mg/l; total dissolved solids, 160-175 mg/l; and pH 7.1. The chemistry of the Palouse River water was analyzed as follows: total hardness 17 mg/l; methyl orange alkalinity 26 mg/l; total dissolved solids, 32 mg/l and pH, 7.0.
(§2) Fish were acclimated to test temperatures, usually at 5, 7.5, 10, 15 and 20 degrees Celsius (C), at least 60 hours before exposure to toxicants. For fish and crayfish four water baths regulated the temperature of assay aquaria. Each water bath contained a battery of 20 identical 19-liter clear glass containers or 11.4-liter plastic aquaria lined with disposable polyethylene bags and covered with Plexiglass lids to reduce evaporation. For larger fish and large numbers of fish the bioassays were made in two temperature controlled rooms that contained a series of 700-liter circular fiberglass vats and a series of 76- and 91-liter plastic containers.
(§3) Standard bioassay techniques were used in sorting fish and conducting the tests. Fish were placed in aerated test aquaria overnight to permit fish to recover from stress due to handling and to deprive them of food. The average load varied but most bioassays were conducted with about 1 g of fish per liter of water.
(§4) Aliquots of organophosphates were dissolved in ethanol and dispensed to the aquaria to provide concentrations suitable for obtaining the LC0 and LC50 of desirable fish and the LC50 and LC100 of target fish. Control fish were conditioned in the same manner as the test fish, but no chemical was added to the control vessels during the assays. After the addition of a chemical, observations were made mainly at 3, 6, 12, 24, 48, 96, and 192 h. The weight and fork length of fish were obtained when fishes were sacrificed.
(§5) Delineation bioassays determined primarily the LC50 and LC100 of sucker and stickleback and the LC0 and LC50 of salmonids.
(§6) The statistical LC1, LC50, and LC99 were interpolated and/or extrapolated using probit graph paper to approximate the LC0, LC50, and LC100 when the latter set of values was not closely determined by single concentrations in a series.
(§7) The approximate LC50 and LC100 of the target fishes (threespine and brook sticklebacks and bridgelip and white suckers) are tabulated in Table 1. The 96-hour selectivity and safety indices of selected species of salmonids versus the three-spine stickleback are tabulated in Table 3.
(§8) Threespine stickleback, brook stickleback, bridgelip sucker, white sucker, chinook salmon, coho salmon, sockeye salmon, kokanee, Kamloops trout, cutthroat trout, and brook trout were treated with various concentrations of 2, 2, 2, 1-tetrachloroethyl diethyl phosphate and at various temperatures to determine approximate selectivity and safety indices. The approximate LC50 and LC100 of the target fishes (threespine and brook sticklebacks and bridgelip and white suckers) are tabulated in Table 5. The 96-hour selectivity and safety indices of selected species of salmonids versus the threespine stickleback are tabulated in Table 7.

cutthroat trout = experiment: as above; type: in vivo, S. clarki
Protocol: as §1, §2, §3, §4, §5, §6, §7, §8

threespine stickleback [2] = experiment: Long-term static bioassay, threespine stickleback; settings: 32 days, 10 C, individually
brook stickleback = experiment: Static bioassay, lethal concentration to brook stickleback; type: in vivo, Eucalia inconstans; settings: 15 C
Protocol: as §1, §2, §3, §4, §5, §6, §7, §8

white sucker = experiment: Static bioassay, lethal concentration to white sucker; type: in vivo, C. commmersoni
Protocol: as §1, §2, §3, §4, §5, §6, §7, §8

[3] = Static bioassay, lethal concentration to brook trout; type: in vivo, Salvelinus fontinalis; settings: brook trout, water, 15 C
Protocol: as §1, §2, §3, §4, §5, §6, §7, §8

brook trout = experiment: as above; type: in vivo, Salvelinus fontinalis; settings: 15 C
Protocol: as §1, §2, §3, §4, §5, §6, §7, §8

chinook salmon = experiment: Long-term static bioassay, chinook salmon; settings: 64 days, 10 C, individually
threespine stickleback [4] = system: threespine stickleback; design: species or system Gasterosteus aculeatus; settings: in vivo
suckers = experiment: Control of suckers in 24-hour applications, usable concentration; type: in vivo
Text: For field applications the concentration of the dichloro- and tetrachloro-compounds would vary with water quality--mainly with regard to water temperature and hydrogen ion concentrations. Generally, treated areas would contain water low in dissolved solids and a pH of 7 to 7.5. The activity of the chemicals would then be essentially similar to that determined in our tests using river water. For the treatment of rivers and shorelines of lakes the concentrations of the dichloro- and tetrachloro-compounds that would be used would be those that would kill stickleback or suckers in 12 to 24 hours. The information above, relating to Examples 1 and 12, substantiates improvement in fish culture by the addition of dichloroethyl or dichlorovinyl diethyl phosphate to an aqueous habitat at a concentration in water ranging between 0.1 and 10 mg/l. […] The information above, relating to Example 2, substantiates improvement in fish culture by the addition of tetrachloroethyl diethyl phosphate to an aqueous habitat at a concentration in water ranging between 4 and 80 μg/l.

Salmonella, five strains = experiment: Salmonella standard plate test for mutagens/carcinogens; settings: 0.5, 5, 50, 500, and 5000 mg/l
brown bullhead catfish = experiment: Bioassay, brown bullhead catfish; type: in vivo, Ictalurus nebulosus; settings: for mortality: 96 h, 140-185 mm; for mortality / time in which all bullhead catfish died: artesian well water, 10 C; for time in which all bullhead catfish died: fry 28-40 mm; for selectivity to bullhead catfish: in vivo
Protocol: Bioassays (10 fish per concentration) were made with brown bullhead catfish fry (28-40 mm) at concentrations of 0, 2, and 4 mg/l of 2, 2-dichlorovinyldiethyl phosphate in artesian well water (load, 0.5 g/l). All the Bullhead catfish died in 12 hours at 2 mg/l and in 6 hours at 4 mg/l of the chemical at 10 C.
A second series of bioassays (10 fish per concentration) was made with larger bullhead catfish (140-185 mm) at 0.6 and 1.0 mg/l concentrations of 2, 2-dichlorovinyl diethyl phosphate in artesian well water (load, 1.0 g/l) at 10 C. In 96 hours 50% mortality occurred at 0.6 mg/l and 100% mortality at 1.0 mg/l.

Structure (SMILES): CCOP(=O)(OCC)OC(Cl)C(Cl)(Cl)Cl (centres unmarked) [2,2,2,1-tetrachloroethyl diethyl phosphate]
- LC50 at 96 h ([1]; 10 C): 0.019 µg/mL
- LC50 at 192 h ([1]; 10 C): 0.017 µg/mL
- LC50 at 48 h ([1]; 15 C): 0.022 µg/mL
- LC50 at 96 h ([1]; 15 C): 0.018 µg/mL
- LC50 at 192 h ([1]; 15 C): 0.018 µg/mL
- LC0 (cutthroat trout; 10 C, 96 h): 14 µg/L
- LC0 (cutthroat trout; 10 C, 192 h): 14 µg/L
- LC0 (cutthroat trout; 15 C, 48 h): 14 µg/L
- LC0 (cutthroat trout; 15 C, 96 h): 14 µg/L
- LC0 (cutthroat trout; 15 C, 192 h): 14 µg/L
- mortality (threespine stickleback [2]; 4 μg/l): 100%
- LC50 (brook stickleback; 24 h): 0.006 µg/mL
- LC100 (brook stickleback; 24 h): 0.01 mg/L
- LC100 (brook stickleback; 48 h): 0.008 mg/L
- LC100 (brook stickleback; 96 h): 0.006 mg/L
- LC50 (white sucker; 15 C, 24 h): 0.004 µg/mL
- LC100 (white sucker; 15 C, 24 h): 10 µg/L
- LC50 (white sucker; 15 C, 48 h): < 0.003 µg/mL
- LC100 (white sucker; 15 C, 48 h): 10 µg/L
- LC50 at 48 h [3]: 0.022 µg/mL
- LC50 at 96 h [3]: 0.02 µg/mL
- LC50 at 192 h [3]: 0.02 µg/mL
- LC0 (brook trout; 48 h): 10 µg/L
- LC0 (brook trout; 96 h): 10 µg/L
- LC0 (brook trout; 192 h): 10 µg/L
- mortality (chinook salmon; 6 μg/l (or less)): Essentially no mortality
- mortality (chinook salmon; 6 μg/l (or less), listed as 2, 2, 2, 1-tetrachloroethyl diethyl phosphate): no significant mortality
- LC50 in combination, 4 Cl component (threespine stickleback [4]): 0.001 µg/mL and 0.00067 µg/mL
- concentration achieving 100% mortality (threespine stickleback [4]): 7 mg/L
- estimated LC100 of the sucker (suckers; relative to 6 to 4 μg/l for stickleback, 10 C): essentially the same
- mutagenic activity (Salmonella, five strains): no mutagenic activity

Structure (SMILES): CCOP(=O)(OC=C(Cl)Cl)OCC [2,2-dichlorovinyl diethyl phosphate]
- LC50 at 192 h ([1]; 10 C): 4.8 µg/mL
- LC50 at 48 h ([1]; 15 C): 5.3 µg/mL
- LC50 at 96 h ([1]; 15 C): 2.5 µg/mL
- LC50 at 192 h ([1]; 15 C): 1.8 µg/mL
- LC0 (cutthroat trout; 10 C, 96 h): 4000 µg/L
- LC0 (cutthroat trout; 15 C, 48 h): 4000 µg/L
- LC0 (cutthroat trout; 15 C, 96 h): 2000 µg/L
- LC0 (cutthroat trout; 15 C, 192 h): 1000 µg/L
- mortality (threespine stickleback [2]; 600 μg/l): 65%
- LC50 (brook stickleback; 24 h): 0.8 µg/mL
- LC100 (brook stickleback; 24 h): 1.0 mg/L
- LC50 (brook stickleback; 48 h): 0.4 µg/mL
- LC100 (brook stickleback; 48 h): 0.6 mg/L
- LC50 (brook stickleback; 96 h): 0.4 µg/mL
- LC100 (brook stickleback; 96 h): 0.6 mg/L
- LC50 (brook stickleback; 192 h): 0.3 µg/mL
- LC100 (brook stickleback; 192 h): 0.6 mg/L
- LC50 (white sucker; 20 C, 24 h): 0.10 µg/mL
- LC50 (white sucker; 20 C, 48 h): 0.07 µg/mL
- LC50 (white sucker; 20 C, 96 h): 0.06 µg/mL
- LC100 (white sucker; 20 C, 96 h): 100 µg/L
- LC50 (white sucker; 20 C, 192 h): 0.05 µg/mL
- LC100 (white sucker; 20 C, 192 h): 100 µg/L
- LC50 at 48 h [3]: 5 µg/mL
- LC50 at 96 h [3]: 3.3 µg/mL
- LC50 at 192 h [3]: 3.2 µg/mL
- LC0 (brook trout; 48 h): 4000 µg/L
- LC0 (brook trout; 96 h): 2000 µg/L
- LC0 (brook trout; 192 h): 800 µg/L
- mortality (chinook salmon; 300 μg/l): essentially no mortality
- mortality (chinook salmon; 300 μg/l, listed as 2, 2-dichlorovinyl diethyl phosphate): no significant mortality
- LC50 in combination, 2 Cl component (threespine stickleback [4]): 0.3 µg/mL and 0.2 µg/mL
- recommended safe and effective concentration (suckers; 10 to 15 C, river water tests): 1.0 mg/L
- mutagenic activity (Salmonella, five strains): no mutagenic activity
- mortality (brown bullhead catfish; 0.6 mg/l): 50%
- mortality (brown bullhead catfish; 1.0 mg/l): 100%
- time in which all bullhead catfish died (brown bullhead catfish; 2 mg/l): 12 h
- time in which all bullhead catfish died (brown bullhead catfish; 4 mg/l): 6 h
- selectivity to bullhead catfish (brown bullhead catfish): specific for the carp and bullhead catfish
- selectivity to bullhead catfish (brown bullhead catfish; listed as dichloro-compound): slightly more selective to bullhead than to stickleback
